Measured values: patent publication US10047081B2, “BACE1 inhibitors” (Hoffmann-La Roche Inc., priority 2015, dated 2018)
pIC50: −log10 of the molar value.

Tests used:
Aβ40 in brain = assay: Lowering of Aβ40 in brain of wild-type mice; format: in vivo; settings: brain Aβ40 as % of control (vehicle group), 30 mg/kg per os, mouse, after 4 h
Protocol: Lowering of Aβ40 in Brain of Wild-Type Mice:
Animals and Housing Conditions.
Animals were maintained in a 12/12 h light/dark cycle, with lights starting at 6 a.m., and experiments were conducted during the light phase. Animal housing and experimental procedures were in line with ethical and legal guidelines and were authorized by local veterinary authorities.
Female C57B1/6J mice were treated with a dose of 30 mg/kg of the compounds, 3-4 animals per treatment group. The test compound was dissolved in 5% EtOH, 10% Solutol, and was applied per os at 10 mL/kg. After 4 h, the animals were sacrificed and brain and plasma were collected. The brain was cut into halves and immediately frozen on dry ice. Brain was used for measurement of Aβ40 and plasma was used for determination of compound exposure. […] Brain tissue was homogenized in 2% DEA buffer in a Roche MagnaLyser (20″, 4000 rpm) and subsequently centrifuged for 1 h at 100000 g. DEA was reduced to 0.2% in 50 mM NaCl and one-half of the DEA lysate was passed over an Oasis Solid phase extraction plate (Waters; cat. no. 186000679), which had been activated with MeOH and equilibrated in dH2O (1 mL each). After washes in 10% and 30% MeOH (1 mL each), the Aβ-peptides were eluted in 0.8 mL of 2% NH4OH in 90% MeOH. The eluate was dried over a N2 flow, and the dried sample was reconstituted in 30 μL of AlphaLISA assay buffer. Aβ40 was determined by an AlphaLISA assay (Perkin-Elmer). In a white 96-well, half area microplate (Perkin-Elmer cat. no. 6005561), 20 μL of the reconstituted sample were mixed with 5 μL of biotinylated BAP-24 (specific for C-terminus of Aβ40) (Brockhaus, M.; Grunberg, J.; Rohrig, S.; Loetscher, H.; Wittenburg, N.; Baumeister, R.; Jacobsen, H.; Haass, C. Caspasemediated cleavage is not required for the activity of presenilins in amyloidogenesis and NOTCH signaling. NeuroReport 1998, 9, 1481-1486) stock=4.4 mg/mL, f.c.5.5 μg/mL), and 5 μL 252Q6 acceptor beads (252Q6 antibody, Invitrogen AMB0062) had been previously conjugated with AlphaLISA Acceptor beads (Perkin-Elmer cat. no. 6772002); final dilution 1:500). The mix was incubated for 1 h at RT in the dark. Then 20 μL of Streptavin-coated Donor Beads (Perkin-Elmer cat. no. 6760002, final dilution 1:125) were added and this final mix was incubated in the dark for another 30 min at RT before RFU was measured in an AlphaScreen Reader (Perkin-Elmer Envision 2104). The value obtained for Ap40 in the treated animals was related to the value in the vehicle group and is given in %. Alternatively a commercial ELISA was used for Aβ40 determination (Wako ELISA: (“Human/Rat β Amyloid (40) ELISA kit Wako II”; cat nr. 294-64701) following the manufacture's instruction. Also here the Aβ-lowering efficacy was calculated as percentage of the vehicle group.

BACE1 = molecular target: T1, BACE1 (Homo sapiens, UniProt P56817); assay: Cellular Aβ-lowering assay (Abeta 40 AlphaLISA, HEK293 APP cells); format: cell-based; settings: 18-20 hrs incubation, Aβ 40 in culture supernatant, read-out: BACE1 cell act. Aβ40 IC50
T1 construct: endogenous in cells; host or cells: HEK293 APP cells
T1 sequence (P56817 46-501): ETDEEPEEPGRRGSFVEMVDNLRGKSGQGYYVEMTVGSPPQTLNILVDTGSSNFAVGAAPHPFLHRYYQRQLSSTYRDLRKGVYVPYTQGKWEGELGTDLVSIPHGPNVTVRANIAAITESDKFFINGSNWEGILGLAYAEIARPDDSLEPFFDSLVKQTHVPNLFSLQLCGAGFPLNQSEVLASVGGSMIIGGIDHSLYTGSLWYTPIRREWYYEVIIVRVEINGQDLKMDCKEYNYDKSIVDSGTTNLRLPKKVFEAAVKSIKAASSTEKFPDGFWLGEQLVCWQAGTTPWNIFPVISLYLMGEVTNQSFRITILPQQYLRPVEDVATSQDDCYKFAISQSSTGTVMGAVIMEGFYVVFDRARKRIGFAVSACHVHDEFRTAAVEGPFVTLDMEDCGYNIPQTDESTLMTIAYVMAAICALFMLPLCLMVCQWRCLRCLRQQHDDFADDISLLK
Outline: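 HEK293 APP cells were treated with compound for 18-20 hrs at 37° C in 1% DMSO. Secreted Aβ40 in the supernatant was measured by AlphaLISA at 615 nm. Values are % of the DMSO-only signal, fit to give IC50.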

[1] = GSH human, in vitro adduct formation; format: in vitro ADME; set-up: key: NF = in vitro no significant adduct formation relative to control; settings: in vitro adduct formation relative to control

SMILES | in vivo effect (Aβ40 in brain) | pIC50 (BACE1) | GSH human [1]
CN=[S@@]1(=O)C[C@@](C)(c2cc(-c3cc(-c4cnc(OCC(F)F)cn4)no3)ccc2F)N=C(N)C1(C)C [Example 5, (1R,3R)-5-amino-3-(5-(3-(5-(2,2-difluoroethoxy)pyrazin-2-yl)isoxazol-5-yl)-2-fluorophenyl)-3,6,6-trimethyl-1-(methylimino)-3,6-dihydro-2H-1,4-thiazine 1-oxide 2,2,2-trifluoroacetate] | A (A = less than 60% of control @ 30 mg/kg mouse) | 7.89 | NF
[2H]C([2H])([2H])N=[S@@]1(=O)C[C@@](C)(c2cc(-c3cc(-c4cnc(OC)cn4)no3)ccc2F)N=C(N)C1(C)C [Example 24, (1R,3R)-3-[2-fluoro-5-[3-(5-methoxypyrazin-2-yl)isoxazol-5-yl]phenyl]-3,6,6-rimethyl-1-oxo-1-(trideuteriomethylimino)-2H-1,4-thiazin-5-amine 2,2,2-trifluoroacetate] | A (A = less than 60% of control @ 30 mg/kg mouse) | 7.30 | 
CN=[S@@]1(=O)C[C@@](C)(c2cc(-c3cc(-c4cnc(OC)cn4)no3)ccc2F)N=C(N)C1(C)C [Example 7, (1R,3R)-5-amino-3-(2-fluoro-5-(3-(5-methoxypyrazin-2-yl)isoxazol-5-yl)phenyl)-3,6,6-trimethyl-1-(methylimino)-3,6-dihydro-2H-1,4-thiazine 1-oxide 2,2,2-trifluoroacetate] | B (B = less than 90% of control @ 30 mg/kg mouse) | 7.25 | NF
CN=[S@@]1(=O)C[C@@](C)(c2cc(-c3cc(-c4ncc(Cl)cn4)no3)ccc2F)N=C(N)C1(C)C [Example 6, (1R,3R)-5-amino-3-(5-(3-(5-chloropyrimidin-2-yl)isoxazol-5-yl)-2-fluorophenyl)-3,6,6-trimethyl-1-(methylimino)-3,6-dihydro-2H-1,4-thiazine 1-oxide 2,2,2-trifluoroacetate] | A (A = less than 60% of control @ 30 mg/kg mouse) | 8.22 | NF
